From US11051515B2, “3-acyl-benzamides and their use as herbicides” (Bayer Aktiengesellschaft, priority 2017, dated 2021)

How the values were obtained:
ALOMY [1] = experiment: Pre-emergence action against ALOMY; assay type: in vivo, Alopecurus myosuroides; settings: dosage 320 g/ha; pre-emergence; scored visually after 3 weeks vs untreated controls; 100% = plants have died, 0% = like control plants
In short: (§1)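 Seeds sown in sandy loam in wood-fiber pots and covered with soil. Greenhouse growth; visual damage scored after 3 weeks versus untreated controls (100% = dead, 0% = like control).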

AVEFA [2] = experiment: Pre-emergence action against AVEFA; assay type: in vivo, Avena fatua; settings: dosage 320 g/ha, scored visually after 3 weeks vs untreated controls
In short: as §1

CYPES [3] = experiment: Pre-emergence action against CYPES; assay type: in vivo, Cyperus esculentus; settings: pre-emergence, dosage 320 g/ha, scored visually after 3 weeks vs untreated controls
In short: as §1

ECHCG [4] = experiment: Pre-emergence action against ECHCG; assay type: in vivo, Echinochloa crus-galli; settings: pre-emergence, dosage 320 g/ha, scored visually after 3 weeks vs untreated controls
In short: as §1

SETVI [5] = experiment: Pre-emergence action against SETVI; assay type: in vivo, Setaria viridis; settings: pre-emergence, dosage 320 g/ha, scored visually after 3 weeks vs untreated controls
In short: as §1

ABUTH [6] = experiment: Pre-emergence action against ABUTH; assay type: in vivo, Abutilon theophrasti; settings: pre-emergence, dosage 320 g/ha, scored visually after 3 weeks vs untreated controls
In short: as §1

AMARE [7] = experiment: Pre-emergence action against AMARE; assay type: in vivo, Amaranthus retroflexus; settings: pre-emergence, dosage 320 g/ha, scored visually after 3 weeks vs untreated controls
In short: as §1

MATIN [8] = experiment: Pre-emergence action against MATIN; assay type: in vivo, Matricaria inodora; settings: Dosage 320 g/ha, pre-emergence
In short: as §1

PHBPU [9] = experiment: Pre-emergence action against PHBPU; assay type: in vivo, Pharbitis purpurea; settings: Dosage 320 g/ha, pre-emergence
In short: as §1

STEME [10] = experiment: Pre-emergence action against STEME; assay type: in vivo, Stellaria media; settings: Dosage 320 g/ha, pre-emergence
In short: as §1

VIOTR [11] = experiment: Pre-emergence action against VIOTR; assay type: in vivo, Viola tricolor; settings: Dosage 320 g/ha, pre-emergence
In short: as §1

VERPE [12] = experiment: Pre-emergence action against VERPE; assay type: in vivo, Veronica persica; settings: Dosage 320 g/ha, pre-emergence
In short: as §1

ALOMY [13] = experiment: Post-emergence action against ALOMY; assay type: in vivo, Alopecurus myosuroides; settings: Dosage 80 g/ha, post-emergence
Procedure: (§2) Seeds of monocotyledonous and dicotyledonous weed and crop plants are laid out in sandy loam soil in wood-fiber pots, covered with soil and cultivated in a greenhouse under good growth conditions. 2 to 3 weeks after sowing, the test plants are treated at the one-leaf stage. The compounds of the invention, formulated in the form of wettable powders (WP) or as emulsion concentrates (EC), are then sprayed onto the green parts of the plants in the form of an aqueous suspension or emulsion at a water application rate equating to […], with addition of 0.2% wetting agent. After the test plants have been left to stand in the greenhouse under optimal growth conditions for about 3 weeks, the action of the preparations is assessed visually in comparison to untreated controls (herbicidal action in percent (%): 100% activity=the plants have died, 0% activity=like control plants). […] At the same time, inventive compounds leave Gramineae crops such as barley, wheat, rye, millet/Sorghum, corn or rice virtually undamaged when applied post-emergence, even at high active ingredient dosages. In addition, some substances are also harmless to dicotyledonous crops such as soya, cotton, oilseed rape, sugar beet or potatoes. Some of the compounds according to the invention have high selectivity and are therefore suitable for controlling unwanted vegetation in agricultural crops by the post-emergence method. The data of Tables B18 to B34 below illustrate, in an exemplary manner, the […] herbicidal action of the compounds according to the invention, the herbicidal activity being stated in percent.

AVEFA [14] = experiment: Post-emergence action against AVEFA; assay type: in vivo, Avena fatua; settings: post-emergence, dosage 80 g/ha, visual assessment about 3 weeks after treatment vs untreated controls
Procedure: as §2

CYPES [15] = experiment: Post-emergence action against CYPES; assay type: in vivo, Cyperus esculentus; settings: post-emergence, dosage 80 g/ha, visual assessment about 3 weeks after treatment vs untreated controls
In short: (§3)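 Post-emergence foliar spray on greenhouse plants at the one-leaf stage, using wettable-powder or emulsion-concentrate formulations in water (600 to […], plus 0.2% wetting agent). Damage scored by eye roughly 3 weeks later against untreated plants: 0% = like control, 100% = dead.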

ECHCG [16] = experiment: Post-emergence action against ECHCG; assay type: in vivo, Echinochloa crus-galli; settings: post-emergence, dosage 80 g/ha, visual assessment about 3 weeks after treatment vs untreated controls
In short: as §3

SETVI [17] = experiment: Post-emergence action against SETVI; assay type: in vivo, Setaria viridis; settings: post-emergence, dosage 80 g/ha, visual assessment about 3 weeks after treatment vs untreated controls
In short: as §3

ABUTH [18] = experiment: Post-emergence action against ABUTH; assay type: in vivo, Abutilon theophrasti; settings: post-emergence, dosage 80 g/ha, visual assessment about 3 weeks after treatment vs untreated controls
In short: as §3

AMARE [19] = experiment: Post-emergence action against AMARE; assay type: in vivo, Amaranthus retroflexus; settings: post-emergence, dosage 80 g/ha, visual assessment about 3 weeks after treatment vs untreated controls
In short: as §3

MATIN [20] = experiment: Post-emergence action against MATIN; assay type: in vivo, Matricaria inodora; settings: post-emergence, dosage 80 g/ha, visual assessment about 3 weeks after treatment vs untreated controls
In short: as §3

PHBPU [21] = experiment: Post-emergence action against PHBPU; assay type: in vivo, Pharbitis purpurea; settings: post-emergence, dosage 80 g/ha
In short: as §3

STEME [22] = experiment: Post-emergence action against STEME; assay type: in vivo, Stellaria media; settings: post-emergence, dosage 80 g/ha
In short: as §3

VIOTR [23] = experiment: Post-emergence action against VIOTR; assay type: in vivo, Viola tricolor; settings: post-emergence, dosage 80 g/ha
In short: as §3

VERPE [24] = experiment: Post-emergence action against VERPE; assay type: in vivo, Veronica persica; settings: dosage 80 g/ha
In short: as §3

POLCO = experiment: Pre-emergence action against POLCO; assay type: in vivo, Polygonum convolvulus; settings: Dosage 320 g/ha, pre-emergence
In short: as §1

In the case of CCCn1nnnc1NC(=O)c1ccc(S(C)(=O)=O)c(C(=O)C2CC2)c1Cl [3-129], the “Pre-emergence action against ALOMY (herbicidal activity in percent)” value (ALOMY [1]) is reported as 90%, the “Pre-emergence action against AVEFA (herbicidal activity)” value (AVEFA [2]) is reported as 100% and the “Pre-emergence action against CYPES (herbicidal activity)” value (CYPES [3]) is reported as 90%. For the same molecule, the “Pre-emergence action against ECHCG (herbicidal activity)” value (ECHCG [4]) was 100%, the “SETVI (Table B8, pre-emergence herbicidal activity)” value (SETVI [5]) was 100% and the “Pre-emergence action against ABUTH (herbicidal activity)” value (ABUTH [6]) was 100%. The “Pre-emergence action against AMARE (herbicidal activity)” value (AMARE [7]) was 100%, the “Pre-emergence action against MATIN” value (MATIN [8]) was 100% and the “Pre-emergence action against PHBPU” value (PHBPU [9]) was 90%. The “Pre-emergence action against STEME” value (STEME [10]) was 100%, the “Pre-emergence action against VIOTR” value (VIOTR [11]) was 100% and the “Pre-emergence action against VERPE” value (VERPE [12]) was 100%. The “Post-emergence action against ALOMY” value (ALOMY [13]) was 90%, the “Post-emergence action against AVEFA (herbicidal action in percent)” value (AVEFA [14]) was 90% and the “Post-emergence action against CYPES (herbicidal action in percent)” value (CYPES [15]) was 80%. The “Post-emergence action against ECHCG (herbicidal action in percent)” value (ECHCG [16]) was 100%, the “Post-emergence action against SETVI (herbicidal action in percent)” value (SETVI [17]) was 100% and the “Post-emergence action against ABUTH (herbicidal action in percent)” value (ABUTH [18]) was 90%. For the same molecule, the “Post-emergence action against AMARE (herbicidal action in percent)” value (AMARE [19]) was 90%, the “Post-emergence action against MATIN (herbicidal action in percent)” value (MATIN [20]) was 100% and the “Post-emergence action against PHBPU” value (PHBPU [21]) was 100. For the same molecule, the “Post-emergence action against STEME” value (STEME [22]) was 100, the “Post-emergence action against VIOTR” value (VIOTR [23]) was 100 and the “Post-emergence action against VERPE” value (VERPE [24]) was 100.

CCCn1nnnc1NC(=O)c1ccc(C(F)(F)F)c(C(=O)C2CC2)c1Cl [3-141] was tested, and the “Pre-emergence action against ALOMY (herbicidal activity in percent)” value (ALOMY [1]) was 90%, the “Pre-emergence action against AVEFA (herbicidal activity)” value (AVEFA [2]) was 80% and the “Pre-emergence action against ECHCG (herbicidal activity)” value (ECHCG [4]) was 100%. The “SETVI (Table B8, pre-emergence herbicidal activity)” value (SETVI [5]) was 100%, the “Pre-emergence action against ABUTH (herbicidal activity)” value (ABUTH [6]) was 100% and the “Pre-emergence action against AMARE (herbicidal activity)” value (AMARE [7]) was 100%. The “Pre-emergence action against MATIN” value (MATIN [8]) was 100%, the “Pre-emergence action against POLCO” value (POLCO) was 90% and the “Pre-emergence action against STEME” value (STEME [10]) was 100%. For the same molecule, the “Pre-emergence action against VIOTR” value (VIOTR [11]) was 100%, the “Pre-emergence action against VERPE” value (VERPE [12]) was 100% and the “Post-emergence action against ALOMY” value (ALOMY [13]) was 80%. For the same molecule, the “Post-emergence action against AVEFA (herbicidal action in percent)” value (AVEFA [14]) was 100%, the “Post-emergence action against CYPES (herbicidal action in percent)” value (CYPES [15]) was 80% and the “Post-emergence action against ECHCG (herbicidal action in percent)” value (ECHCG [16]) was 100%. For the same molecule, the “Post-emergence action against SETVI (herbicidal action in percent)” value (SETVI [17]) was 100%, the “Post-emergence action against ABUTH (herbicidal action in percent)” value (ABUTH [18]) was 80% and the “Post-emergence action against AMARE (herbicidal action in percent)” value (AMARE [19]) was 100%. The “Post-emergence action against MATIN (herbicidal action in percent)” value (MATIN [20]) was 100%, the “Post-emergence action against PHBPU” value (PHBPU [21]) was 100 and the “Post-emergence action against STEME” value (STEME [22]) was 100. For the same molecule, the “Post-emergence action against VIOTR” value (VIOTR [23]) was 100 and the “Post-emergence action against VERPE” value (VERPE [24]) was 100.
